Assay: xn = mol fraction of the nth substance listed
Conditions: Drop volume

CCCCC(N)C(=O)O (stereo not given) [2-aminohexanoic acid] + O
surface tension liquid-gas [mN/m]
Conditions	x1 = 0.000156	x1 = 0.000311	x1 = 0.000524	x1 = 0.000699	x1 = 0.000873	x1 = 0.001048	x1 = 0.001222	x1 = 0.001411
293.15 K	72.4	72.21	72.02	71.85	71.71	71.48	71.28	71.09
298.15 K	71.55	71.28	71.14	71	70.82	70.59	70.42	70.18
303.15 K	70.74	70.54	70.43	70.22	70.06	69.79	69.65	69.44
308.15 K	69.9	69.8	69.62	69.44	69.23	69	68.8	68.59
313.15 K	69.2	69.02	68.91	68.68	68.47	68.18	68.02	67.87

CCC(N)C(=O)O (stereo not drawn) [(.+-.)-α-aminobutyric acid] + O
surface tension liquid-gas [mN/m]
Conditions	x1 = 0.000177	x1 = 0.000351	x1 = 0.000702	x1 = 0.001053	x1 = 0.001403	x1 = 0.001754	x1 = 0.002103	x1 = 0.002641
293.15 K	72.49	72.49	72.48	72.47	72.46	72.45	72.44	72.43
298.15 K	71.8	71.79	71.77	71.75	71.74	71.72	71.71	71.69
303.15 K	71.08	71.07	71.05	71.02	71	70.98	70.96	70.93
308.15 K	70.25	70.24	70.21	70.19	70.15	70.13	70.09	70.07
313.15 K	69.47	69.45	69.42	69.39	69.35	69.31	69.28	69.22
